Measurements from patent US20240067632A1, “WEE1 Degrading Compounds and Uses Thereof” (Bristol-Myers Squibb Company, priority 2022, published 2024).
Like-named read-outs stand apart in the source and are kept apart here.

Key:
MKN45 cells = assay: MKN45 cell proliferation assay (Cell-Titer-Glo, 120 h); type: cell-based; details: for EC50: Homo sapiens, MKN-45, 120 h, Cell-Titer-Glo, read-out: MKN45 Cell Prolif. 120 hr (EC50); for MKN45 Cell Prolif. 120 hr (Ymin-Obs): minimal percent of DMSO control observed in the concentrations tested
Method in brief: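 Growth inhibition was read as blank-corrected Cell-Titer-Glo luminescence expressed as percent DMSO control after 120 h at 37 C, 400 cells/well. Compounds tested in triplicate as 10-point half-log series from 1 or 10 uM, 0.1% DMSO; four-parameter fit gave EC50, and lowest observed percent control was reported as Ymin-obs.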

WEE1 = target: T1, WEE1 (Homo sapiens, UniProt P30291+Q96SW2); assay: WEE1-ePL degradation assay (LentiX-WEE1-ePL-GSPT1-ND cells, InCELL Hunter luminescence, 4 h); type: cell-based; details: 293T-LentiX WEE1-ePL cells; for DC50: read-out: 293T-LentiX WEE1-ePL Degradation 4 hr (EC50)
T1 construct: C-terminal ePL-tagged (DiscoverX, Fremont, CA) full-length WEE1 expression construct; expressed in transfected cells; host or cells: LentiX-HEK293T (Invitrogen), lentiviral transduction; co-expressing GSPT1-GN (G576N, lacking the first 158 amino acids)
Method in brief: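 First, compounds were pre-plated as 10-point, 3-fold dilutions (top 1 uM or 10 uM) with DMSO control; next, WEE1-ePL-expressing HEK293T cells were added and held 4 h at 37 °C; finally, InCELL Hunter reagent was applied for 30 min before luminescence reading. A 4PL fit gave EC50 and Ymin.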

[1] = lower limit of the fit (0 = luciferase inhibitor, Ymax = DMSO control)
[2] = lower limit of the fit (Ymin=0 luciferase inhibitor, Ymax DMSO control)

| SMILES | EC50 (MKN45 cells; growth inhibition) [nM] | 293T-LentiX WEE1-ePL Degradation 4 hr (Ymin) (WEE1; [1]) | DC50 (WEE1) [nM] | EC50 (MKN45 cells) [nM] | 293T-LentiX WEE1-ePL Degradation 4 hr (Ymin) (WEE1; [2]) | MKN45 Cell Prolif. 120 hr (Ymin-Obs) (MKN45 cells) |
| --- | --- | --- | --- | --- | --- | --- |
| O=C1CCC(N2Cc3cc(O[C@H]4CCN(Cc5ccc6nc(N7C[C@@H]8C9CCC(O9)[C@@H]8C7)ncc6c5)C4)ccc3C2=O)C(=O)N1 (stereo partly shown) | 10.5 | 35 | 9.25 |  |  | 12.82 |
| C[C@@H]1CC(c2ccc3cc(CN4CC[C@H](Oc5ccc6c(c5)CN(C5CCC(=O)NC5=O)C6=O)C4)ccc3n2)CCO1 (stereo partly drawn) [3-(5-{[(3S)-1-({2-[(2R)-2-methyloxan-4-yl]quinolin-6-yl}methyl)pyrrolidin-3-yl]oxy}-1-oxo-2,3-dihydro-1H-isoindol-2-yl)piperidine-2,6-dione] | 10.9 | 29.54 | 10.5 |  |  | 14.5 |
| O=C1CCC(N2Cc3cc(O[C@H]4CCN(Cc5cnc6c(c5)COCC6)C4)ccc3C2=O)C(=O)N1 (stereo partly drawn) [3-(1-oxo-5-{[(3S)-1-({5H,7H,8H-pyrano[4,3-b]pyridin-3-yl}methyl)pyrrolidin-3-yl]oxy}-2,3-dihydro-1H-isoindol-2-yl)piperidine-2,6-dione] | 456 | 35 | 39.9 |  |  | 11.67 |
| O=C1CCC(N2Cc3cc(O[C@H]4CCN(Cc5cc(-c6ccccc6)ccn5)C4)ccc3C2=O)C(=O)N1 (stereo partly drawn) [3-(1-oxo-5-{[(3S)-1-[(4-phenylpyridin-2-yl)methyl]pyrrolidin-3-yl]oxy}-2,3-dihydro-1H-isoindol-2-yl)piperidine-2,6-dione] | 16.7 | 34.5 | 5.3 |  |  | 8.59 |
| O=C1CCC(N2Cc3cc(O[C@H]4CCN(Cc5ccc6nc(N7CCC[C@]78CCOC8)ncc6c5)C4)ccc3C2=O)C(=O)N1 (stereo partly drawn) [3-(5-{[(3S)-1-({2-[(5R)-7-oxa-1-azaspiro[4.4]nonan-1-yl]quinazolin-6-yl}methyl)pyrrolidin-3-yl]oxy}-1-oxo-2,3-dihydro-1H-isoindol-2-yl)piperidine-2,6-dione] | 6.61 | 32.5 | 12.3 |  |  | 6.57 |
| O=C1CCC(N2Cc3cc(O[C@H]4CCN(Cc5ccc6nc(N7CCCC7)ccc6c5)C4)ccc3C2=O)C(=O)N1 (stereo partly drawn) [3-(1-oxo-5-{[(3S)-1-{[2-(pyrrolidin-1-yl)quinolin-6-yl]methyl}pyrrolidin-3-yl]oxy}-2,3-dihydro-1H-isoindol-2-yl)piperidine-2,6-dione] | 6.02 | 34 | 3.97 |  |  | 11.865 |
| C[C@H]1CC(c2ccc3cc(CN4CC[C@H](Oc5ccc6c(c5)CN(C5CCC(=O)NC5=O)C6=O)C4)ccc3n2)CCO1 (stereo partly drawn) [3-(5-{[(3S)-1-({2-[(2S)-2-methyloxan-4-yl]quinolin-6-yl}methyl)pyrrolidin-3-yl]oxy}-1-oxo-2,3-dihydro-1H-isoindol-2-yl)piperidine-2,6-dione] | 4.39 | 28.55 | 2.97 |  |  | 10.88 |
| C#Cc1ncc2cc(CN3CC[C@H](Oc4ccc5c(c4)CN(C4CCC(=O)NC4=O)C5=O)C3)ccc2n1 (stereo partly drawn) [3-(5-{[(3S)-1-[(2-ethynylquinazolin-6-yl)methyl]pyrrolidin-3-yl]oxy}-1-oxo-2,3-dihydro-1H-isoindol-2-yl)piperidine-2,6-dione] | 70.2 | 45 | 16.5 |  |  | 28.856 |
| CC#Cc1ccc2cc(CN3CC[C@H](Oc4ccc5c(c4)CN(C4CCC(=O)NC4=O)C5=O)C3)ccc2n1 (stereo partly drawn) [3-(1-oxo-5-{[(3S)-1-{[2-(prop-1-yn-1-yl)quinolin-6-yl]methyl}pyrrolidin-3-yl]oxy}-2,3-dihydro-1H-isoindol-2-yl)piperidine-2,6-dione] | 2.02 | 29.33 | 3.18 |  |  | 8.03 |
| O=C1CCC(N2Cc3cc(O[C@H]4CCN(Cc5cnc6c(c5)CCCO6)C4)ccc3C2=O)C(=O)N1 (stereo partly drawn) [3-(1-oxo-5-{[(3S)-1-({2H,3H,4H-pyrano[2,3-b]pyridin-6-yl}methyl)pyrrolidin-3-yl]oxy}-2,3-dihydro-1H-isoindol-2-yl)piperidine-2,6-dione] | 1120 | 33.245 | 35.4 |  |  | 23.52 |

Continued, in another order:

| EC50 (MKN45 cells; growth inhibition) [nM] | 293T-LentiX WEE1-ePL Degradation 4 hr (Ymin) (WEE1; [1]) | DC50 (WEE1) [nM] | EC50 (MKN45 cells) [nM] | 293T-LentiX WEE1-ePL Degradation 4 hr (Ymin) (WEE1; [2]) | SMILES | MKN45 Cell Prolif. 120 hr (Ymin-Obs) (MKN45 cells) |
| --- | --- | --- | --- | --- | --- | --- |
|  |  | 1.2 | 0.638 | 25.19 | COC[C@@H]1CN(Cc2cc(F)c3nc([C@H]4CCOC(C)(C)C4)ccc3c2)C[C@H]1Oc1ccc2c(c1)CN([C@H]1CCC(=O)NC1=O)C2=O [(3S)-3-(5-{[(3S,4S)-1-({2-[(4S)-2,2-dimethyloxan-4-yl]-8-fluoroquinolin-6-yl}methyl)-4-(methoxymethyl)pyrrolidin-3-yl]oxy}-1-oxo-2,3-dihydro-1H-isoindol-2-yl)piperidine-2,6-dione] | 8.947 |
| 7.41 | 31.5 | 8.84 |  |  | O=C1CCC(N2Cc3cc(O[C@H]4CCN(Cc5ccc6nc(C7(O)CCOCC7)ccc6c5)C4)ccc3C2=O)C(=O)N1 (stereo partly drawn) [3-(5-{[(3S)-1-{[2-(4-hydroxyoxan-4-yl)quinolin-6-yl]methyl}pyrrolidin-3-yl]oxy}-1-oxo-2,3-dihydro-1H-isoindol-2-yl)piperidine-2,6-dione] | 6.55 |
|  |  | 2.88 | 10.8 | 38.34 | O=C1CC[C@H](N2Cc3cc(O[C@H]4CCN(Cc5cc(Cl)c6nc(N7CCOCC7)ncc6c5)C4)ccc3C2=O)C(=O)N1 [(3S)-3-(5-{[(3S)-1-{[8-chloro-2-(morpholin-4-yl)quinazolin-6-yl]methyl}pyrrolidin-3-yl]oxy}-1-oxo-2,3-dihydro-1H-isoindol-2-yl)piperidine-2,6-dione] | 12.54 |
| 833 | 61 | 28.5 |  |  | COc1cncc(CN2CC[C@H](Oc3ccc4c(c3)CN(C3CCC(=O)NC3=O)C4=O)C2)c1C (stereo partly drawn) [3-(5-{[(3S)-1-[(5-methoxy-4-methylpyridin-3-yl)methyl]pyrrolidin-3-yl]oxy}-1-oxo-2,3-dihydro-1H-isoindol-2-yl)piperidine-2,6-dione] | 59.99 |
| > 10000 | 64 | 61 |  |  | N#Cc1ccc(CN2CC[C@H](Oc3ccc4c(c3)CN(C3CCC(=O)NC3=O)C4=O)C2)nc1 (stereo partly drawn) [6-{[(3S)-3-{[2-(2,6-dioxopiperidin-3-yl)-1-oxo-2,3-dihydro-1H-isoindol-5-yl]oxy}pyrrolidin-1-yl]methyl}pyridine-3-carbonitrile] | 69.48 |
| 17.9 | 21.62 | 38.4 |  |  | O=C1CCC(N2Cc3cc(O[C@H]4CCN(Cc5ccc6nc(N7CCC(F)(F)CC7)ccc6c5)C4)ccc3C2=O)C(=O)N1 (stereo partly drawn) [3-(5-{[(3S)-1-{[2-(4,4-difluoropiperidin-1-yl)quinolin-6-yl]methyl}pyrrolidin-3-yl]oxy}-1-oxo-2,3-dihydro-1H-isoindol-2-yl)piperidine-2,6-dione] | 17.9 |
